Entries after “also recorded” stand apart in the source; their conditions may differ.
Key:
[1] = tested on: NO formation in RAW264.7 cells; assay: Inhibition effect on NO formation (Griess reaction) in LPS-stimulated RAW264.7 cells; format: cell-based, murine; conditions: RAW264.7, LPS 0.1 μg/ml, 16 hours; MA 1-100 μM, MMA, SMA, hydrocortisone 10 μM; vs control treated with LPS only
Description: (§1) RAW264.7, a murine macrophage cell line, was obtained from Korean Cell Line Bank (KCLB). It was cultured in Dulvecco's modified Eagle's medium (DMEM, LONZA) containing 10% fetal bovine serum (FBS, LONZA) and 1% penicillin/streptomycin (Sigma) in an incubator at 37° C. under 5% CO2 and then sub-cultured when the cell density reached 80%. After RAW264.7 cells were cultured for 24 hours, MA (1-100 μM), MMA (10 μM), SMA (10 μM) and hydrocortisone (10 μM), which is a well-known substance having anti-inflammatory activity, were added. One hour after the addition, LPS (0.1 or 1.0 μg/ml, Sigma) was added to the mixture, which was then cultured for 8 or 16 hours. Dimethyl sulfoxide (hereinafter, “DMSO”) was used as a negative control, while LPS (0.1 or 1.0 μg/ml, Sigma) was used as a positive control without adding the macrolactin compounds.
NO concentration in cell culture was determined by using a Nitrate/Nitrite colorimetric assay Kit (Cayman). Murine macrophage RAW264.7 cells adjusted to 1×10^5 cells/well were cultured in a 6-well plate for 24 hours under the conditions mentioned in Example 2, and then further cultured for 16 hours after being treated with the present macrolactin compounds and LPS (0.1 μg/ml, Sigma). The cultured media were treated with Griess reagent R1 (sulfanilamide) and then Griess reagent R2 (N-(1-Naphthyl)-ethylenediamine) in a 96-well plate provided by the manufacturer, and then detected the formation of purple azo group from nitrite. The amount of produced NO was calculated using the calibration curve which had been made through the standard solution provided by the manufacturer at an absorbance of 540 nm in a UV spectrometer.

[2] = tested on: PGE2 formation in RAW264.7 cells; assay: Inhibition effect on PGE2 formation (EIA kit) in LPS-stimulated RAW264.7 cells; format: cell-based, murine; conditions: RAW264.7, LPS 0.1 μg/ml, 16 hours; vs control treated with LPS only
Description: as §1
The amount of formed PGE2, an intracellular […] factor, was determined by using an Amersham prostaglandin E2 biotrak Enzymeimmunoassay (EIA) system Kit (GE Healthcare). Murine macrophage RAW264.7 cells adjusted to 2×10^4 cells/well were cultured in a 96-well plate for 24 hours under the conditions mentioned in Example 2 and then further cultured for 16 hours after being treated with the present macrolactin compounds and LPS (0.1 μg/ml, Sigma). The amount of produced PGE2 was calculated using the calibration curve which had been made through the standard solution provided by the manufacturer at an absorbance of 450 nm in a UV spectrometer. The r^2 value of the calibration curve against the standard substance was above 0.99.

iNOS mRNA = assay: Expression of iNOS mRNA by real-time PCR in LPS-stimulated RAW264.7 cells; format: cell-based, murine; conditions: RAW264.7, LPS 0.1 μg/ml, 16 hours; for inhibition of expression of iNOS mRNA: real-time PCR; for inhibition of iNOS mRNA expression compared to hydrocortisone: relative to hydrocortisone (10 μM)
Description: as §1
The effect of the present macrolactin compounds on the expression of intracellular inflammatory factors, iNOS and COX-2 mRNA was investigated. Murine macrophage RAW264.7 cells adjusted to 1×10^5 cells/well were cultured in a 6-well plate for 24 hours under the conditions mentioned in Example 2 and then further cultured for 16 hours after being treated with the present macrolactin compounds and LPS (0.1 μg/ml, Sigma). Total RNA of the cultured cells was isolated by Trizol reagent (Sigma) under RNase-free conditions. A cDNA synthesis kit (TAKARA) was used to obtain a template for PCR using the separated total RNA. To the mixture of 1 μl of Oligo dT Primer (50 μM), 1 μl of dNTP Mixture (10 mM each) and 2 μg of the template RNA, RNase-free dH2O was added to adjust the total volume to 10 μl. The mixture was maintained at 65° C. for 5 minutes and then in ice for 2 minutes. To the mixture of 10 μl of the mixture, 4 μl of 5× PrimeScript™ buffer, 0.5 μl of RNase inhibitor (40 U/μl), and 0.5 μl of PrimeScript™ RTase (200 U/μl), RNase-free dH2O was added to adjust the total volume to 20 μl. The mixture was reacted at 42° C. for 30 minutes to synthesize cDNA.
(§2) The extent of iNOS and COX-2 mRNA expression of the mixture was determined by using a real-time gene amplifier (Corbett Life Science Rotor-gene 6000). The operating condition of the real-time gene amplifier was as follows: initial denaturation started at 95° C. for 5 minutes and was then repeated 50 times at 94° C. for 30 seconds, at 57° C. for 30 seconds and 72° C. for 30 seconds. When the mRNA expressions of the samples were compared with each other, that of the housekeeping gene was determined at the same time and then the relative quantity was calculated. By compensating the amount of RNA for the measured value of the housekeeping gene, the amount of mRNA produced in each sample was calculated to Ct (Threshold cycle) value.

COX-2 mRNA = assay: Expression of COX-2 mRNA by real-time PCR in LPS-stimulated RAW264.7 cells; format: cell-based, murine; conditions: RAW264.7, LPS 0.1 μg/ml, 16 hours
Description: as §1
The effect of the present macrolactin compounds on the expression of intracellular inflammatory factors, iNOS and COX-2 mRNA was investigated. Murine macrophage RAW264.7 cells adjusted to 1×10^5 cells/well were cultured in a 6-well plate for 24 hours under the conditions mentioned in Example 2 and then further cultured for 16 hours after being treated with the present macrolactin compounds and LPS (0.1 μg/ml, Sigma). Total RNA of the cultured cells was isolated by Trizol reagent (Sigma) under RNase-free conditions. A cDNA synthesis kit (TAKARA) was used to obtain a template for PCR using the separated total RNA. […]
as §2, with “The operating condition of the real-time gene amplifier was as follows: initial denaturation started at 95° C. for 5 minutes and was then repeated 50 times at 94° C. for 30 seconds, at 57° C. for 30 seconds and 72° C. for 30 seconds.” left out

iNOS protein = assay: Formation of iNOS protein by western blot in LPS-stimulated RAW264.7 cells; format: cell-based, murine; conditions: RAW264.7, LPS 0.1 μg/ml, 16 hours
Description: as §1
(§3) The effect of the present macrolactin compounds on the formation of intracellular inflammatory factor, iNOS and COX-2 protein was investigated. Murine macrophage RAW264.7 cells adjusted to 1×10^6 cells/dish were cultured in a 100 mm dish for 24 hours under the conditions mentioned in Example 2 and then further cultured for 16 hours after being treated with the present macrolactin compounds and LPS (0.1 μg/ml, Sigma). The cells were washed 2-3 times with cold PBS and then collected. 100 μl of 50 mM Tris-HCl buffer, pH7.5 (0.1 M KCl, 1 mM EDTA, 1 mM DTT, 0.2 mM PMSF) were added to the collected cells, which were lysed by using liquid nitrogen. The lysate was centrifuged at 4° C. for 10 minutes at 13,000 rpm to collect the supernatant. Protein was quantitatively analyzed by the Bradford method. 50 μg of the protein was subjected to sodium dodecyl sulfate-polyacrylamide gel electrophoresis (SDS-PAGE). The SDS-PAGE gel was transferred to nitrocellulose membrane (Amersham) at 50 V for 2 hours. The nitrocellulose membrane was washed twice with 1× Tris buffered saline (TBS; 0.1 M NaCl, 10 mM Tris-HCl), to which was added 3% gelatin solution for blocking non-specific protein reaction and then reacted at room temperature for 1 hour. […]

COX-2 protein = assay: Formation of COX-2 protein by western blot in LPS-stimulated RAW264.7 cells; format: cell-based, murine; conditions: RAW264.7, LPS 0.1 μg/ml, 16 hours
Description: as §1, §3

[3] = tested on: murine macrophage RAW264.7; assay: Cytotoxicity by MTT analysis; format: cell-based; conditions: RAW264.7, MTT, 16 hours
Description: as §1
MTT analysis was used to investigate the cytotoxic effects on murine macrophage RAW264.7 of the present macrolactin compounds. The cells adjusted to 4×10^4 cells/well were cultured in a 96-well plate for 24 hours under the conditions mentioned in Example 2 and then further cultured for 16 hours after being treated with the present macrolactin compounds. After the medium was removed, 100 μl of MTT solution (2 mg/ml PBS) was added, and then the mixture was cultured in an incubator at 37° C. under 5% CO2 for 4 hours. After the MTT solution was removed, 100 μl of DMSO was added, and then the mixture was shake-cultured for 30 minutes in the dark. After the culture, the amount of free formazan was determined at 540 nm by using an ELISA reader.

[4] = tested on: TNF-α formation in RAW264.7 cells; assay: Inhibition of TNF-α formation (mouse ELISA kit) in LPS-stimulated RAW264.7 cells; format: cell-based, murine; conditions: RAW264.7, LPS; for inhibition of TNF-α formation: vs control treated with LPS only
Description: (§4) The present inventors have confirmed the anti-inflammatory effects of the above macrolactin compounds to accomplish the present invention. In order to investigate the anti-inflammatory effects, a murine macrophage RAW264.7 cell line treated with each of the purified compounds was stimulated by LPS (0.1 μg/mL or 1.0 μg/mL, Sigma), and then the formation of inflammation-inducing substances 1) NO and 2) PEG2 and the expression of enzymes related to their formation were analyzed. The formation of 3) pro-inflammatory cytokines, TNF-α, IL-1β, IL-6 and GM-CSF were also analyzed by the same procedures.
(§5) 3) Suppression of pro-inflammatory cytokines by the present macrolactin compounds was determined by using a mouse ELISA kit (KOMA Biotech).
as §1

[5] = tested on: IL-6 formation in RAW264.7 cells; assay: Inhibition of IL-6 formation (mouse ELISA kit) in LPS-stimulated RAW264.7 cells; format: cell-based, murine; conditions: RAW264.7, LPS
Description: as §4, §5, §1

[6] = tested on: vancomycin-resistant Enterococci (VRE), methicillin-resistant Staphylococcus aureus (MRSA) and Burkholderia cepacia; conditions: against VRE, compounds from Bacillus subtilis DSM 16696; cited from earlier work
[7] = tested on: IL-1β formation in RAW264.7 cells; assay: Inhibition of IL-1β formation (mouse ELISA kit) in LPS-stimulated RAW264.7 cells; format: cell-based, murine; conditions: RAW264.7, LPS
Description: as §4, §5
(§6) RAW264.7, a murine macrophage cell line, was obtained from Korean Cell Line Bank (KCLB). It was cultured in Dulvecco's modified Eagle's medium (DMEM, LONZA) containing 10% fetal bovine serum (FBS, LONZA) and 1% penicillin/streptomycin (Sigma) in an incubator at 37° C. under 5% CO2 and then sub-cultured when the cell density reached 80%. After RAW264.7 cells were cultured for 24 hours, MA (1-100 μM), MMA (10 μM), SMA (10 μM) and hydrocortisone (10 μM), which is a well-known substance having anti-inflammatory activity, were added. One hour after the addition, LPS (0.1 or 1.0 μg/ml, Sigma) was added to the mixture, which was then cultured for 8 or 16 hours. […]

[8] = tested on: GM-CSF formation in RAW264.7 cells; assay: Inhibition of GM-CSF formation (mouse ELISA kit) in LPS-stimulated RAW264.7 cells; format: cell-based, murine; conditions: RAW264.7, LPS
Description: as §4, §5, §6

Structure (SMILES) | inhibition of NO formation [1] | inhibition of PGE2 formation [2] | inhibition of expression of iNOS mRNA (iNOS mRNA) | inhibition of iNOS mRNA expression compared to hydrocortisone (iNOS mRNA) | inhibition of expression of COX-2 mRNA (COX-2 mRNA) | inhibition of formation of iNOS protein (iNOS protein) | inhibition of formation of COX-2 protein (COX-2 protein) | cytotoxicity compared to hydrocortisone [3] | inhibition of TNF-α formation [4] | inhibition of IL-6 formation [5] | anti-bacterial activity [6] | inhibition effect on TNF-α formation compared to hydrocortisone / control substances ([4]; relative to hydrocortisone) | inhibition of IL-1β formation [7] | inhibition of GM-CSF formation [8]
C[C@@H]1CCC/C=C/C=C/[C@H](O)C[C@@H](O)C/C=C\C=C\[C@@H](OC(=O)CC(=O)O)C/C=C/C=C\C(=O)O1 [MMA, 7-O-malonyl macrolactin A] | strongly inhibited; also recorded: low inhibition activities | strongly inhibited | strongly suppressed; also recorded: strongly inhibited | comparable to or superior to that of hydrocortisone | strongly inhibited | strongly inhibited | strongly inhibited | lower cytotoxicities | inhibited | strongly inhibited | superior anti-bacterial activity |  |  | 
CC1CCC/C=C/C=C/[C@H](O)C[C@@H](O)C/C=C\C=C\[C@@H](O)C/C=C/C=C\C(=O)O1 (stereo partly drawn) [MA, macrolactin A] | strongly inhibited | strongly inhibited | strongly suppressed; also recorded: strongly inhibited | comparable to or superior to that of hydrocortisone | strongly inhibited | strongly inhibited | strongly inhibited | lower cytotoxicities | inhibited | strongly inhibited | anti-bacterial effect against MRSA only | especially superior inhibition effect | strongly inhibited | strongly inhibited
C[C@@H]1CCC/C=C/C=C/[C@H](O)C[C@@H](O)C/C=C\C=C\[C@@H](OC(=O)CCC(=O)O)C/C=C/C=C\C(=O)O1 [SMA, 7-O-succinyl macrolactin A] | strongly inhibited; also recorded: low inhibition activities | strongly inhibited | strongly suppressed; also recorded: strongly inhibited | comparable to or superior to that of hydrocortisone | strongly inhibited | strongly inhibited | strongly inhibited | lower cytotoxicities | inhibited | strongly inhibited | superior anti-bacterial activity |  | strongly inhibited | strongly inhibited
C[C@]12CCC(=O)C=C1CC[C@@H]1[C@@H]2[C@@H](O)C[C@@]2(C)[C@H]1CC[C@]2(O)C(=O)CO [hydrocortisone, reference compound] | strongly inhibited |  |  |  |  |  |  |  |  |  |  |  |  | 

Reference: US9089543B2, “Anti-inflammatory composition containing macrolactin A and a derivative thereof as active ingredients” (DAEWOO PHARMACEUTICAL IND. CO., LTD., priority 2009, dated 2015)
